According to US8071768B2, “Alkylquinoline and alkylquinazoline kinase modulators” (Janssen Pharmaceutica, N.V., priority 2005, dated 2011):

target: T1, TrkB (Homo sapiens, UniProt Q16620); experiment: Trk B Fluorescence Polarization Kinase Assay; type: biochemical; conditions: uncertainty ±10%
T1 construct: purchased Upstate 14-507M
Description: Trk B Fluorescence Polarization Kinase Assay (TrkB IC50 Data)
The compounds of the present invention are also specific inhibitors of TrkB. Selection of preferred compounds of Formula I for use as TrkB inhibitors was performed in the following manner. The TrkB assay utilized the fluorescein-labeled phosphopeptide and the anti-phosphotyrosine antibody included in the Panvera Phospho-Tyrosine Kinase Kit (Green) supplied by Invitrogen. When TrkB phosphorylated poly Glu4Tyr, the fluorescein-labeled phosphopeptide was displaced from the anti-phosphotyrosine antibody by the phosphorylated poly Glu4Tyr, thus decreasing the FP value. The TrkB kinase reaction was incubated at room temperature for 30 minutes under the following conditions: 50 nM TrkB (Upstate, catalog # 14-507M), 20 ug/mL poly Glu4Tyr, 150 uM ATP, 5 mM MgCl2, 1% compound in DMSO. The kinase reaction was stopped with the addition of EDTA. The fluorescein-labeled phosphopeptide and the anti-phosphotyrosine antibody were added and incubated for 30 minutes at room temperature. Data points were an average of triplicate samples. Inhibition and IC50 data analysis were done with GraphPad Prism using a non-linear regression fit with a multiparamater, sigmoidal dose-response (variable slope) equation.

T1 sequence (Q16620 32-822): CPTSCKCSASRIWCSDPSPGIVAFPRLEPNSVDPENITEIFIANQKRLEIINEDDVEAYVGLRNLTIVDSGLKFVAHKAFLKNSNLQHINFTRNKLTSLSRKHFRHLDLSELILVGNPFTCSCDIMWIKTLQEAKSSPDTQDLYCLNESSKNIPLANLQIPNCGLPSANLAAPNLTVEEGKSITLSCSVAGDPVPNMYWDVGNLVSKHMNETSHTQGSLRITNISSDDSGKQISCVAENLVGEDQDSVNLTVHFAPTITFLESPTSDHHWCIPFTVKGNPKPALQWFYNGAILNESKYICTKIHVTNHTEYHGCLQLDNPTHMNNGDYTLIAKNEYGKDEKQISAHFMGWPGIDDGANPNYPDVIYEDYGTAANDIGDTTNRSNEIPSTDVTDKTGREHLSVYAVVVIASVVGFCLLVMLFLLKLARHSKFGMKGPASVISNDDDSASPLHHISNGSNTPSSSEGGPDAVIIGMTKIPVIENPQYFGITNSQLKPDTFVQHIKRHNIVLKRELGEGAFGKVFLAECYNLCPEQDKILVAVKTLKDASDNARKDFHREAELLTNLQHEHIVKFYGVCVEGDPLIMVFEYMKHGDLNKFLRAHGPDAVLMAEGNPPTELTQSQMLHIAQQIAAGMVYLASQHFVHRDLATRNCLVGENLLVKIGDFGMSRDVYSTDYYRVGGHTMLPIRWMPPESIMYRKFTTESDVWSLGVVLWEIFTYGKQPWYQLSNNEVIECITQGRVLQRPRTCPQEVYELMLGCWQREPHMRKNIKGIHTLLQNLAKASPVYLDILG

IC50	SMILES
> 20000 nM	O=C(Nc1ccc(N2CCOCC2)cc1)N1CCC(c2ncnc3cc(OCCCO)ccc23)CC1 [Compound 77, 4-[7-(3-Hydroxy-propoxy)-quinazolin-4-yl]-piperidine-1-carboxylic acid (4-morpholin-4-yl-phenyl)-amide]
200 nM	CC(C)Oc1ccc(NC(=O)N2CCC(c3ncnc4cc(N5CCN(C)CC5)ccc34)CC2)cc1 [Compound 103, 4-[7-(4-Methyl-piperazin-1-yl)-quinazolin-4-yl]-piperidine-1-carboxylic acid (4-isopropoxy-phenyl)-amide]
800 nM	CN1CCN(CCCOc2ccc3c(C4CCN(C(=O)Nc5ccc(N6CCCC6)nc5)CC4)ncnc3c2)CC1 [Compound 104, 4-{7-[3-(4-Methyl-piperazin-1-yl)-propoxy]-quinazolin-4-yl}-piperidine-1-carboxylic acid (6-pyrrolidin-1-yl-pyridin-3-yl)-amide]
6500 nM	COc1cc2ncnc(C3CCN(C(=O)Nc4ccccc4)CC3)c2cc1OC [Compound 45, 4-(6,7-Dimethoxy-quinazolin-4-yl)-piperidine-1-carboxylic acid phenylamide]
17400 nM	CS(=O)(=O)N1CCN(c2ccc3c(C4CCN(C(=O)Nc5ccc(N6CCOCC6)cc5)CC4)ncnc3c2)CC1 [Compound 142, 4-[7-(4-Methanesulfonyl-piperazin-1-yl)-quinazolin-4-yl]-piperidine-1-carboxylic acid (4-morpholin-4-yl-phenyl)-amide]
2600 nM	CC(C)c1ccc(NC(=O)CN2CCC(c3ncnc4ccccc34)CC2)cc1 [Compound 16, N-(4-Isopropyl-phenyl)-2-(4-quinazolin-4-yl-piperidin-1-yl)-acetamide]
3300 nM	CC(C)c1ccc(NC(=O)N2CCC(c3ncnc4ccccc34)CC2)cc1 [Compound 7, 4-Quinazolin-4-yl-piperidine-1-carboxylic acid (4-isopropyl-phenyl)-amide]
600 nM	CC(C)Oc1ccc(NC(=O)N2CCC(c3ncnc4cc(OCCCN5CCCC5=O)ccc34)CC2)cc1 [Compound 67, 4-{7-[3-(2-Oxo-pyrrolidin-1-yl)-propoxy]-quinazolin-4-yl}-piperidine-1-carboxylic acid (4-isopropoxy-phenyl)-amide]
200 nM	CC(C)Oc1ccc(NC(=O)N2CCC(c3ncnc4cc(NCCCN5CCN(C)CC5)ccc34)CC2)cc1 [Compound 102, 4-{7-[3-(4-Methyl-piperazin-1-yl)-propylamino]-quinazolin-4-yl}-piperidine-1-carboxylic acid (4-isopropoxy-phenyl)-amide]
11000 nM	CNC(=O)C1CCN(c2ccc3c(C4CCN(C(=O)Nc5ccc(N6CCCC6)cc5)CC4)ncnc3c2)CC1 [Compound 155, 4-[7-(4-Carboxylic acid methylamide-piperidin-1-yl)-quinazolin-4-yl]-piperidine-1-carboxylic acid (4-pyrrolidin-1-yl-phenyl)-amide]
> 20000 nM	CN1CCCN(CCCOc2ccc3c(C4CCN(C(=O)Nc5ccc(N6CCOCC6)cc5)CC4)ncnc3c2)CC1 [Compound 125, 4-{7-[3-(4-Methyl-[1,4]diazepan-1-yl)-propoxy]-quinazolin-4-yl}-piperidine-1-carboxylic acid (4-morpholin-4-yl-phenyl)-amide]
600 nM	CCN(CC)CCCOc1ccc2c(C3CCN(C(=O)Nc4ccc(OC(C)C)cc4)CC3)ncnc2c1 [Compound 36, 4-[7-(3-Diethylamino-propoxy)-quinazolin-4-yl)-piperidine-1-carboxylic acid (4-isopropoxy-phenyl)-amide]

Second part, the compound before the results:

SMILES	IC50
CN1CCN(CCCOc2ccc3c(C4CCN(C(=O)Nc5ccc(N6CCOCC6)c(F)c5)CC4)ncnc3c2)CC1 [Compound 81, 4-{7-[3-(4-Methyl-piperazin-1-yl)-propoxy]-quinazolin-4-yl}-piperidine-1-carboxylic acid (3-fluoro-4-morpholin-4-yl-phenyl)-amide]	> 20000 nM
COc1cc2ncnc(C3CCN(C(=O)Nc4ccc(-c5ccco5)cc4)CC3)c2cc1OC [Compound 59, 4-(6,7-Dimethoxy-quinazolin-4-yl)-piperidine-1-carboxylic acid (4-furan-2-yl-phenyl)-amide]	13900 nM
CN(C)C(=O)N1CCN(c2ccc3c(C4CCN(C(=O)Nc5ccc(N6CCOCC6)cc5)CC4)ncnc3c2)CC1 [Compound 143, 4-{4-[1-(4-Morpholin-4-yl-phenylcarbamoyl)-piperidin-4-yl]-quinazolin-7-yl}-piperazine-1-carboxylic acid dimethylamide]	7600 nM
COc1cc2ncnc(C3CCN(C(=O)NC4CCCCC4)CC3)c2cc1OC [Compound 42, 4-(6,7-Dimethoxy-quinazolin-4-yl)-piperidine-1-carboxylic acid cyclohexylamide]	28700 nM
COc1cc2ncnc(C3CCN(C(=O)Nc4ccc(OC(F)(F)F)cc4)CC3)c2cc1OC [Compound 50, 4-(6,7-Dimethoxy-quinazolin-4-yl)-piperidine-1-carboxylic acid (4-trifluoromethoxy-phenyl)-amide]	500 nM
CC(=O)N1CCC[C@H]1COc1ccc2c(C3CCN(C(=O)Nc4ccc(N5CCCC5)cc4)CC3)ncnc2c1 [Compound 162, (S)-4-[7-(1-Acetyl-pyrrolidin-2-ylmethoxy)-quinazolin-4-yl]-piperidine-1-carboxylic acid (4-pyrrolidin-1-yl-phenyl)-amide]	> 21000 nM
CN1CCN(CCCOc2ccc3c(C4CCN(C(=O)Nc5cnc(N6CCCC6)nc5)CC4)ncnc3c2)CC1 [Compound 105, 4-{7-[3-(4-Methyl-piperazin-1-yl)-propoxy]-quinazolin-4-yl}-piperidine-1-carboxylic acid (2-pyrrolidin-1-yl-pyrimidin-5-yl)-amide]	200 nM
CN(C)[C@@H]1CCN(c2ccc3c(C4CCN(C(=O)Nc5ccc(N6CCOCC6)cc5)CC4)ncnc3c2)C1 [Compound 150, (R)-4-[7-(3-Dimethylamino-pyrrolidin-1-yl)-quinazolin-4-yl]-piperidine-1-carboxylic acid (4-morpholin-4-yl-phenyl)-amide]	> 42000 nM
CCCCc1ccc(NC(=O)N2CCC(c3ncnc4cc(OC)c(OC)cc34)CC2)cc1 [Compound 43, 4-(6,7-Dimethoxy-quinazolin-4-yl)-piperidine-1-carboxylic acid (4-butyl-phenyl)-amide]	800 nM
COc1cc2ncnc(C3CCN(C(=O)Nc4ccc5[nH]ccc5c4)CC3)c2cc1OC [Compound 23, 4-(6,7-Dimethoxy-quinazolin-4-yl)-piperidine-1-carboxylic acid (1H-indol-5-yl)-amide]	13300 nM
CC(C)Oc1ccc(NC(=O)N2CCC(c3ncnc4ccc(C#CCN5CCOCC5)cc34)CC2)cc1 [Compound 15, 4-[6-(3-Morpholin-4-yl-prop-1-ynyl)-quinazolin-4-yl]-piperidine-1-carboxylic acid (4-isopropoxy-phenyl)-amide]	800 nM
COc1ccc2c(C3CCN(C(=O)Nc4ccc(C(C)C)cc4)CC3)ncnc2c1 [Compound 32, 4-(7-Methoxy-quinazolin-4-yl)-piperidine-1-carboxylic acid (4-isopropyl-phenyl)-amide]	500 nM
CC(C)Oc1ccc(NC(=O)N2CCC(c3ncnc4cc(OCCN5CCOCC5)ccc34)CC2)cc1 [Compound 37]	700 nM
